Patent publication US20110117227A1, “COSMETIC COMPOSITION FOR ANTI-AGING OF THE SKIN COMPRISING PHASEOLUS RADIATUS SEED EXTRACTS BY FERMENTATION AND ENZYME TREATMENT” (COREANA COSMETICS, CO., LTD., priority 2008, published 2011)

Key:
Assay type in all cases: cell-based
Human normal fibroblasts [1] = experiment: Collagen biosynthesis (procollagen type I C-peptide level) in human normal fibroblasts; details: positive control 250 uM, PICP
Procedure: Human normal fibroblasts were inoculated in a 48-well microplate ([…]) containing DMEM (Dulbecco's Modified Eagle Medium), followed by culture at 37° C. for 24 hours. […] After the culture, supernatant of each well was collected and procollagen type I C-peptide (PICP) level therein was measured using the kit (Takara, Japan) to calculate the amount of collagen newly synthesized. PICP level was calculated as ng/ml. […] The increasing rate of collagen biosynthesis was calculated according to the following Math Figure 1 and the results are shown in Table 2.

[2] = test system: Human skin cells, fibroblasts; experiment: Alleviation of cell irritation caused by lactic acid (MTT cell survival); details: lactic acid 0.2% only (comparative control), 12 hours
Procedure: Human skin cells, fibroblasts (KCTC, Korean Collection for Type Culture, Korea), were cultured in T-75 flask (Falcon, USA) until the cell confluency reached 80%. The cells were transferred to a 96-well plate (Falcon, USA) at the density of 3×10^4 cells/well, followed by further culture for 24 hours. After the culture, the cells were observed under microscope if they were completely adhered and well-grown. As a stimulus for skin, lactic acid (0.2%) was used. Particularly, 200 μl of each DMEM supplemented with 0.2% lactic acid and DMEM not-containing lactic acid was added to each well, to which the Phaseolus radiatus extract, the Phaseolus radiatus liquor of yeast-fermentation, the Phaseolus radiatus liquor of lactic acid bacterium-fermentation, the Phaseolus radiatus extract of enzyme treatment-yeast fermentation, the Phaseolus radiatus extract of enzyme treatment-lactic acid bacterium fermentation (Comparative Manufacturing Examples 1-5), and the Phaseolus radiatus extract of fermentation-enzyme treatment (Manufacturing Examples 1 and 2) were added thereto at the concentration of 1.0% (v/v). […] Particularly, MTT (Sigma, USA) solution (3 mg/ml) was added thereto and then Absorbance at 570 nm was measured using ELISA reader (Molecular Devices, USA).

Human normal fibroblasts [3] = experiment: Fibroblast proliferation (MTT); details: positive control 10 ng/ml
Procedure: Human normal fibroblasts were inoculated in a 96-well microplate (1×10^4 cells/well) containing DMEM, followed by culture at 37° C. for 24 hours. The Phaseolus radiatus extract prepared in Comparative Manufacturing Example 1, the Phaseolus radiatus liquor of yeast-fermentation prepared in Comparative Manufacturing Example 2, the Phaseolus radiatus liquor of lactic acid bacterium-fermentation prepared in Comparative Manufacturing Example 3, the Phaseolus radiatus extract of enzyme treatment-yeast fermentation prepared in Comparative Manufacturing Example 4, the Phaseolus radiatus extract of enzyme treatment-lactic acid bacterium fermentation prepared in Comparative Manufacturing Example 5, the Phaseolus radiatus extract of yeast fermentation-enzyme treatment prepared in Manufacturing Example 1 and the Phaseolus radiatus extract of lactic acid bacterium fermentation-enzyme treatment prepared in Manufacturing Example 2 were treated to the experimental group in which the final concentration of the respective extracts or liquors was 1% and medium was replaced with serum-free medium, followed by further culture for 24 hours. […] Particularly, MTT (Sigma, USA) solution (3 mg/ml) was added thereto and then Absorbance at 570 nm was measured using ELISA reader (Molecular Devices, USA). […]

O=C1O[C@H]([C@@H](O)CO)C(O)=C1O [Ascorbic acid, ascorbic acid]
Increasing rate of collagen biosynthesis (%) (Human normal fibroblasts [1]): 72.8%

CC(O)C(=O)O (stereo not drawn) [lactic acid]
Proliferation rate of fibroblast (%) [2]: 0.0%

TGF-β
Proliferation rate of fibroblast (%) (Human normal fibroblasts [3]): 186.6%
